One assay has as its target T1, human DP2 receptor (Homo sapiens, UniProt Q9Y5Y4).
T1 construct: expressed in transfected cells
T1 sequence (Q9Y5Y4 1-395): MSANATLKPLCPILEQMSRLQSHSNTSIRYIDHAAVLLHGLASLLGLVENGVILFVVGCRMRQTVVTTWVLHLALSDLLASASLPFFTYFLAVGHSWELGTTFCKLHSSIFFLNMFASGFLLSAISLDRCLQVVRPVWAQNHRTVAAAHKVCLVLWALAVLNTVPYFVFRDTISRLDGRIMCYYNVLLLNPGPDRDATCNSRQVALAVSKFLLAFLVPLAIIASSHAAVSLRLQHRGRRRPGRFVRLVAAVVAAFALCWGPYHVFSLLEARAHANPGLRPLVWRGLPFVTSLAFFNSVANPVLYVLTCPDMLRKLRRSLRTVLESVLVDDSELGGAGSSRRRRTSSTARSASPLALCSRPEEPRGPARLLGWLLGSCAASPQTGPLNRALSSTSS
Kind of assay: DP2/CRTH2 radioligand binding assay using [3H]PGD2. The conditions noted are these: hDP2 (CRTH2) binding assay. In a few lines:
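HEK293 membranes with stable recombinant human DP2, incubated with 1 nM [3H]PGD2 and compound 60 min at room temperature in pH 7.4 HEPES/MnCl2/EDTA buffer, with or without 0.2% human serum albumin.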

Assay [1] deals with T2, recombinant human CRTH2 receptor (Homo sapiens, UniProt Q9Y5Y4).
T2 construct: expressed in transfected cells
T2 sequence (Q9Y5Y4 1-395): T1 sequence (Q9Y5Y4 1-395)
The assay can be described thus: GTPγS binding assay. Format: biochemical. The conditions noted are these: +HSA; read-out: hDP2 GTPγS μM (+HSA). An outline of the steps:
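Membranes from CHO cells stably expressing recombinant receptor (~12.5 μg/well), incubated 60 min at 30° C with 0.05 nM [^35S]-GTPγS, 80 nM PGD2, 5 μM GDP in pH 7.4 Hepes buffer with 0.2% human serum albumin. Filter-bound radioactivity counted; specific binding = total minus binding without PGD2; IC50 from titration curves.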

A further assay deals with T3, human DP1 receptor (Homo sapiens, UniProt Q13258).
T3 construct: tissue Biological Specialty Corporation; host or cells: human platelets, membranes
T3 sequence (Q13258 1-359): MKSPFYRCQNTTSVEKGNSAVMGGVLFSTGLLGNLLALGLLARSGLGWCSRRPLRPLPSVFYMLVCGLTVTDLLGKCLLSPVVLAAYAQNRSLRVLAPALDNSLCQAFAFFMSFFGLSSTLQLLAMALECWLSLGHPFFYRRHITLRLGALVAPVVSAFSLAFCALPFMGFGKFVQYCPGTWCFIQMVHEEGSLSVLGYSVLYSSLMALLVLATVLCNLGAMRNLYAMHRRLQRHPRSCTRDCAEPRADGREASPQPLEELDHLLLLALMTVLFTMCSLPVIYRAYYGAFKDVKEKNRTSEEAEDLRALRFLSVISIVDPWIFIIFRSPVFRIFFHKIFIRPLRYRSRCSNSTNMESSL
The assay can be described thus: DP1 radioligand binding assay using [3H]BWA868C. The conditions noted are these: hDP1 binding. An outline of the steps:
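Human platelet membranes (20 μg protein/well) incubated 60 min at room temperature with 2 nM [3H]BWA868C in 50 mM Hepes, 10 mM MnCl2, 1 mM EDTA, ±0.2% human serum albumin, pH 7.4. Bound label measured after filtration; nonspecific binding defined with 10 μM BW A868C. IC50 from titration curves.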

As for `O=C(O)Cc1cccc(Oc2ccc(Br)cc2CN2C(=O)OC[C@@H]2c2ccccc2)c1` [Compound 1-45, {3-[4-Bromo-2-((S)-2-oxo-4-phenyl-oxazolidin-3-ylmethyl)-phenoxy]-phenyl}-acetic acid], the results for the IC50 (on human DP2 receptor; in assay [1]; on human DP1 receptor) were < 300 nM, < 0.3 µM and > 1000 nM, respectively.

For the compound `COc1ccc(CC(=O)O)cc1Oc1ccc(Br)cc1CN1C(=O)O[C@H]2Cc3ccccc3[C@H]21` [Compound 2-4, {3-[4-Bromo-2-((3aR,8aS)-2-oxo-8,8a-dihydro-3aH-indeno[1,2-d]oxazol-3-ylmethyl)-phenoxy]-4-methoxy-phenyl}-acetic acid], the IC50 at human DP2 receptor is < 300 nM; in assay [1] it was < 0.3 µM; on human DP1 receptor it was > 1000 nM.

For `Cc1nc(C)c(-c2ccc(Oc3cccc(CC(=O)O)c3)c(CN3C(=O)O[C@H](c4ccccc4)[C@@H]3C)c2)s1` [Compound 1-75, {3-[4-(2,4-Dimethyl-thiazol-5-yl)-2-((4S,5R)-4-methyl-2-oxo-5-phenyl-oxazolidin-3-ylmethyl)-phenoxy]-phenyl}-acetic acid], the IC50 on human DP2 receptor is < 300 nM; in assay [1], 0.3 to 1 µM; on human DP1 receptor, < 300 nM.

For `COc1ccc(CC(=O)O)cc1Oc1cc(Br)ccc1CN1C(=O)O[C@H](c2ccccc2)[C@@H]1C` [Compound 1-81, {3-[5-Bromo-2-((4S,5R)-4-methyl-2-oxo-5-phenyl-oxazolidin-3-ylmethyl)-phenoxy]-4-methoxy-phenyl}-acetic acid], the figures for the IC50 (on human DP2 receptor; in assay [1]; on human DP1 receptor) were < 300 nM, < 0.3 µM and > 1000 nM, respectively.

On to `O=C(O)Cc1cccc(Oc2ccc(C(F)(F)F)cc2CN2CCOC2=O)c1` [Compound 1-5, {3-[2-(2-Oxo-oxazolidin-3-ylmethyl)-4-trifluoromethyl-phenoxy]-phenyl}-acetic acid], for which the IC50 at human DP2 receptor is < 300 nM; in assay [1], < 0.3 µM; at human DP1 receptor it was > 1000 nM.

Take `COc1ccc(CC(=O)O)cc1Oc1ccc(C(F)(F)F)cc1CN1C(=O)O[C@H](c2ccccc2)[C@@H]1C` [Compound 1-32, {4-Methoxy-3-[2-((4S,5R)-4-methyl-2-oxo-5-phenyl-oxazolidin-3-ylmethyl)-4-trifluoromethyl-phenoxy]-phenyl}-acetic acid]: the results for the IC50 (on human DP2 receptor; in assay [1]; at human DP1 receptor) were < 300 nM, < 0.3 µM and > 1000 nM, respectively.

Regarding `COc1ccc(CC(=O)O)cc1Oc1ccc(NC(=O)c2ccc(Cl)cc2)cc1CN1CCOC1=O` [Compound 1-91, {3-[4-(4-Chloro-benzoylamino)-2-(2-oxo-oxazolidin-3-ylmethyl)-phenoxy]-4-methoxy-phenyl}-acetic acid], the IC50 on human DP2 receptor is < 300 nM; in assay [1], > 1 µM; on human DP1 receptor it was > 1000 nM.

For the origin of these results see US8242145B2, “Cyclic diaryl ether compounds as antagonists of prostaglandin D2 receptors” (Panmira Pharmaceuticals, LLC, priority 2008, dated 2012).
